This note sets out measurements from patent publication US11234918B2, “Methods for botanical and/or algae extraction” (BASF CORPORATION, priority 2012, dated 2022).

The subject of test [1] is human keratinocytes. The test is described as follows: UVB light protection: LDH release from UVB-irradiated in vitro cultivated human keratinocytes (UVB-LDH). Particulars: positive control aspirin at 0.03%, control with UV = 100. In kind it is cell-based. For orientation: LDH in the medium is a marker of cell lysis.
Excerpt: Antiinflammatory Properties In Vitro-UVB Light Protection (UVB-LDH and UVB-PGE2)
(§1) Cell Protection Effect Against UVB on In Vitro Cultivated Human Keratinocytes
This membrane stress is indicated by the release of the cytoplasm enzyme lactate dehydrogenase (LDH). The effect of UVB radiation was investigated on keratinocytes in vitro by determining the release of the cytoplasm enzyme LDH (lactate dehydrogenase). This enzyme serves as a marker for cell damage.
(§2) Method: To carry out the tests, a defined medium (DMEM), which comprises 10% fetal calf serum, was inoculated with the keratinocytes and the plant extract (diluted with saline solution) was added 72 hours after inoculation.
(§3) The keratinocytes were then irradiated with a UVB dose (30 mJ/cm^2-tubes: DUKE GL40E).
Following further incubation for 1 day at 37° C. and at 5% CO2, the LDH and the PGE2 content in the supernatant was determined. The content of LDH (lactate dehydrogenase) was determined by means of an enzyme reaction (kit used to investigate the LDH content from Roche). The content of PGE2 was determined using an ELISA test (ELISA kit from Roche). Following trypsin treatment, the cells were centrifuged and counted.
UVB-LDH LDH or lactate dehydrogenase determination by means of an enzyme reaction
For test [2], the system named is human keratinocytes. The test is described as follows: UVB light protection: PGE2 release from UVB-irradiated in vitro cultivated human keratinocytes, ELISA (UVB-PGE2). In kind it is cell-based. As to conditions: positive control aspirin at 0.03%, control with UV = 100. (An ELISA detects its analyte on a solid surface through an enzyme-linked reagent.)
Description: as §1, §2, §3
Following further incubation for 1 day at 37° C. and at 5% CO2, the LDH and the PGE2 content in the supernatant was determined. […] The content of PGE2 was determined using an ELISA test (ELISA kit from Roche).
UVB-PGE2 prostaglandins E2 determined using an ELISA test (ELISA kit from Roche).

As to `CC(=O)Oc1ccccc1C(=O)O` [aspirin], the figures for the LDH release (% of UV control) with human keratinocytes [1] (Table 4) and with human keratinocytes [1] (Table 6) were 15% and 0%, respectively. The PGE2 release (% of UV control) is -6% in the test with human keratinocytes [2] (Table 4) and 0% in the test on human keratinocytes [2] (Table 6).
